Molecular target: T1, hTAS1R1/rTAS1R3 (UniProt Q7RTX1+Q923K1)
T1 construct: UniProtKB number Q7RTX1–1); The cDNA coding region of rTAS1R3 was synthesized with optimized-codon usage for human expression; expressed in transfected cells; host or cells: HEK293T/17 (ATCC CRL-11268)
T1 sequence (Q7RTX1 21-841): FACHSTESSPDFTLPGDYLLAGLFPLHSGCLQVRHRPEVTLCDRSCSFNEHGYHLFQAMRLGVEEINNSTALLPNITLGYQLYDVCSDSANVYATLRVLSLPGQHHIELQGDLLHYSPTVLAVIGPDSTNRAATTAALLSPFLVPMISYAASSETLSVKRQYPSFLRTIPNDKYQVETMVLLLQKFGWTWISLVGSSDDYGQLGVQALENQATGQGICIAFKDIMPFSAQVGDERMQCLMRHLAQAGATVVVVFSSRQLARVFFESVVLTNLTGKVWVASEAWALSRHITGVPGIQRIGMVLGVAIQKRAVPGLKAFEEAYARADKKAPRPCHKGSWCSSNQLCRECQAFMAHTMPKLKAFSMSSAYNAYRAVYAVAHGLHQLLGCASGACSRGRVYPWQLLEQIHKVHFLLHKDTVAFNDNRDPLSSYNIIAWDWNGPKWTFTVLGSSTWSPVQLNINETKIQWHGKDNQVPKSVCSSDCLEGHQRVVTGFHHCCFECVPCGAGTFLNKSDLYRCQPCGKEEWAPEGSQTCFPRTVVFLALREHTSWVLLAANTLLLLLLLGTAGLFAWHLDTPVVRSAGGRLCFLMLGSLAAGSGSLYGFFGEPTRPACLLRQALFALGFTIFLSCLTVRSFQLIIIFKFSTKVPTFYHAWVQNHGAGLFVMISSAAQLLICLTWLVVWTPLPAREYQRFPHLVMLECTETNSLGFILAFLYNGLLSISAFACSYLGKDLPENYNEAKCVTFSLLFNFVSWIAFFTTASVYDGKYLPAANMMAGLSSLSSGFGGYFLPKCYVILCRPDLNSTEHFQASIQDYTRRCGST
T1 sequence (Q923K1 21-858): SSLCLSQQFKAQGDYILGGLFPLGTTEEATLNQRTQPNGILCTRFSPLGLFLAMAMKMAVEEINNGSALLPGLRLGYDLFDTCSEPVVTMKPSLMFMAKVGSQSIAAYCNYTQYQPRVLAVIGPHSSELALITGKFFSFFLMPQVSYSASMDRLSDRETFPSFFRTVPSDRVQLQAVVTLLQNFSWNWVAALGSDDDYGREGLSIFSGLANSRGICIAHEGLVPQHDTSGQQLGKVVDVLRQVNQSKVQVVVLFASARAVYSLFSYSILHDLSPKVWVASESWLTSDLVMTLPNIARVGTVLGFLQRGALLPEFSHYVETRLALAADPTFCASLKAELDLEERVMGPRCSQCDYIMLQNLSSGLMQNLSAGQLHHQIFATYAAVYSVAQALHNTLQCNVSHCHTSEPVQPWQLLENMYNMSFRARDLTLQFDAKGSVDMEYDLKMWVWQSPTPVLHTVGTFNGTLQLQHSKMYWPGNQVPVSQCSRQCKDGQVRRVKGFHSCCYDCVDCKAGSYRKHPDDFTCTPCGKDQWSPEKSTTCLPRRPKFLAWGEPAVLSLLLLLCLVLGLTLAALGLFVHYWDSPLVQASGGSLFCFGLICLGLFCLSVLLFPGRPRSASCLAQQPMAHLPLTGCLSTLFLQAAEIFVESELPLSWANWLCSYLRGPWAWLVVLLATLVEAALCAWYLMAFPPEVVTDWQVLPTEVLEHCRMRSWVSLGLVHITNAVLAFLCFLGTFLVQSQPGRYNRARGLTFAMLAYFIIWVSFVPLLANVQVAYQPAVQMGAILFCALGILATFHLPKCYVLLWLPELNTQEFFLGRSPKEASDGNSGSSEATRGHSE
Assay: Calcium assay (GCaMP6s, Gα15i2) in transiently transfected HEK293T/17 cells
Assay type: cell-based, human, rat
Experimental: To this end, hTAS1R1/rTAS1R3 and the chimeric G protein Gα15i2 were transiently expressed in HEK293T cells. Cellular responses were assessed via calcium imaging using a fluorescent protein calcium biosensor (GCaMP6s) and compared with those of mock-transfected cells.

Row | EC50 (WT, S807 alone, Fig. 4E) [µM] | Compound | maximal response, fold lower than that elicited by L-Glu [fold] | EC50 (GSH alone, Fig. 6C) [µM] | EC50 (GSH alone, Fig. 6D) [µM] | EC50 (GSH alone, Fig. 6E) [µM] | EC50 (WT, GSH) [µM] | Max ∆F/F0 (WT, GSH) | R1 = mutant EC50/WT EC50 (WT, GSH) | EC50 (WT, GSH alone, Fig. 4C) [µM] | EC50 (agonist alone, Fig. 1, Fig. S2) [µM] | max ∆F/F0 (agonist alone, Fig. 1, Fig. S2) | effect on the dose-response curves to L-Glu (in the presence of 3 mM and 10 mM GSH, Fig. 6F)
1 | – | N[C@@H](CCC(=O)N[C@@H](CS)C(=O)NCC(=O)O)C(=O)O [GSH, γ-L-glutamyl-L-cysteinyl-glycine] | 2.2 | 3430 ± 98 | 4360 ± 308 | 3210 ± 138 | 2520 ± 238 | 0.23 ± 0.01 | 1.0 | 4250 ± 500 | 2150 ± 87 | 0.46 ± 0.01 | a leftward shift and a decrease in the EC50 values
2 | 1.25 ± 0.12 | CCCC(CCC)NC(=O)c1ccc2c(c1)OCO2 [S807, N-(heptan-4-yl)benzo[d][1,3]dioxole-5-carboxamide, reference compound] | – | – | – | – | – | – | – | – | 1.02 ± 0.08 | 1.87 ± 0.03 | –
